Source: the Kinase Knowledgebase extract (Sharma et al. 2016)

Target: MAPK14 (human) (UniProt Q16539)
Experiment: Inhibition of MAPK14 Kinase Activity

MAPK14 (human), sequence (Q16539 whole entry, looked up): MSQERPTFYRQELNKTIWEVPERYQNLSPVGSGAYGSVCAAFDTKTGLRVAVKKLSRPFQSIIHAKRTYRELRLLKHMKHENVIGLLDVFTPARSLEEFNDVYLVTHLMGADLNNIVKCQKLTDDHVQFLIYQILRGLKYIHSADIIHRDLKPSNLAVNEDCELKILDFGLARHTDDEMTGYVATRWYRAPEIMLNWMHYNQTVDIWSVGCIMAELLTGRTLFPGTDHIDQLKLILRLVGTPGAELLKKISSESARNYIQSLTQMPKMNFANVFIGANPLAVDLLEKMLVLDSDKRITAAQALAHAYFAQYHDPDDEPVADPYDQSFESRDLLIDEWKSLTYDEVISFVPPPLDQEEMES

Structure (SMILES) | IC50
Cc1cccc(C)c1N1CC(Cc2ccccc2OCC(C)C)CCC1=O (configuration not stated) | ≤ 10 µM
O=C1CCC(Oc2cc(F)cc(F)c2)CN1c1c(Cl)ccnc1Cl (configuration not stated) | ≤ 10 µM
O=C1NCC(Cc2cc(Cl)cc(Cl)c2)CN1c1c(Cl)cccc1Cl (configuration not stated) | ≤ 10 µM
O=C1CCC(Oc2cc(Cl)cc(Cl)c2)CN1C1C(Cl)CCCC1Cl (configuration not stated) | ≤ 10 µM
O=C(Cc1ccccc1)Nc1ncc(Cl)c(N2CC(Oc3ccc(F)cc3F)CCC2=O)c1Cl (configuration not stated) | ≤ 10 µM
Cc1ccc(CC2CCC(=O)N(c3c(Cl)csc3Cl)C2)c(C)c1 (configuration not stated) | ≤ 10 µM
O=C1CCC(Oc2cccc3ccccc23)CN1c1c(Cl)csc1Cl (configuration not stated) | ≤ 10 µM
O=C1CCC(Sc2ccc(F)cc2F)CN1c1c(Cl)csc1Cl (configuration not stated) | ≤ 10 µM
CNC1CCC(Cl)C(N2CC(Cc3ccc(F)cc3F)CCC2=O)C1Cl (configuration not stated) | ≤ 10 µM
Cc1ccc2ccccc2c1N1CC(Cc2ccc(F)cc2F)CCC1=O (configuration not stated) | ≤ 10 µM
Cc1cc(C#CCCN(C)C)cc(C)c1N1CC(Cc2ccc(F)cc2F)CCC1=O (configuration not stated) | ≤ 10 µM
O=C1COC(Cc2ccccc2F)CN1c1c(Cl)cccc1Cl (configuration not stated) | ≤ 10 µM
O=C1CCC(Cc2ccc(F)cc2F)CN1c1c(Cl)cc(Br)cc1Cl (configuration not stated) | ≤ 10 µM
O=C1CCC(CO)(Cc2ccc(F)cc2F)CN1c1c(Cl)cccc1Cl (configuration not stated) | ≤ 10 µM
O=C1COC(Cc2ccccc2Cl)CN1c1c(Cl)cccc1Cl (configuration not stated) | ≤ 10 µM
Cc1cc(C#CCCCO)cc(C)c1N1CC(Cc2ccc(F)cc2F)CCC1=O (configuration not stated) | ≤ 10 µM
O=C1SCC(Cc2ccc(F)cc2F)CN1c1c(Cl)ccc(CO)c1Cl (configuration not stated) | ≤ 10 µM
O=C(Cc1ccccc1)Nc1cc(Cl)c(N2CC(Oc3ccc(F)cc3F)CCC2=O)c(Cl)c1 (configuration not stated) | ≤ 10 µM
C[C@@H]1C[C@H](Cc2ccc(F)cc2F)CN(c2c(Cl)cc(NCCN(C)C)cc2Cl)C1=O | ≤ 10 µM
NCCCc1cc(Cl)c(N2CC(Cc3ccc(F)cc3F)CCC2=O)c(Cl)c1 (configuration not stated) | ≤ 10 µM
CC[C@H]1C[C@@H](Cc2ccc(F)cc2F)CN(c2c(Cl)cccc2Cl)C1=O | ≤ 10 µM

Structure (SMILES) | IC50
O=C1CCC(Oc2cc(Cl)cc(Cl)c2)CN1c1c(Cl)cncc1Cl (configuration not stated) | ≤ 10 µM
Cc1cc(C(=O)O)cc(C)c1N1C[C@@H](Cc2ccc(F)cc2F)C[C@@H](C)C1=O | ≤ 10 µM
Nc1cc(Cl)c(N2CC(Cc3ccc(F)cc3F)OCC2=O)c(Cl)c1 (configuration not stated) | ≤ 10 µM
Cc1cc(C#CCCOC2CCCCO2)cc(C)c1N1CC(Cc2ccc(F)cc2F)CCC1=O (configuration not stated) | ≤ 10 µM
COc1ccccc1OC1CCC(=O)N(c2c(Cl)cncc2Cl)C1 (configuration not stated) | ≤ 10 µM
O=C1CCC(Sc2ccc(Cl)cc2)CN1c1c(Cl)cccc1Cl (configuration not stated) | ≤ 10 µM
CNc1cc(Cl)c(N2CC(Cc3ccc(F)cc3F)CNC2=O)c(Cl)c1 (configuration not stated) | ≤ 10 µM
O=C1CCC(Sc2ccc3ccccc3c2)CN1c1c(Cl)ccnc1Cl (configuration not stated) | ≤ 10 µM
Cc1cccc(C)c1N1CC(Cc2ccccc2OCC(=O)O)CCC1=O (configuration not stated) | ≤ 10 µM
O=C1CCC(Sc2cc(F)cc(F)c2)CN1c1c(Cl)ccnc1Cl (configuration not stated) | ≤ 10 µM
O=C1CCC(Sc2cccc3ccccc23)CN1C1C(Cl)CCCC1Cl (configuration not stated) | ≤ 10 µM
COC(=O)c1cc(Cl)c(N2CC(Cc3ccc(F)cc3F)CCC2=O)c(Cl)c1 (configuration not stated) | ≤ 10 µM
Nc1cc(Cl)c(N2CC(Cc3ccc(F)cc3F)CNC2=O)c(Cl)c1 (configuration not stated) | ≤ 10 µM
O=C1CCC(Cc2ccc(F)cc2F)CN1c1c(Cl)sc(O)c1Cl (configuration not stated) | ≤ 10 µM
CC(C)(C)OC(=O)Nc1cc(Cl)c(N2CC(Cc3ccccc3F)CCC2=O)c(Cl)c1 (configuration not stated) | ≤ 10 µM
O=C1CCC(Sc2ccc(F)cc2F)CN1c1c(Cl)cncc1Cl (configuration not stated) | ≤ 10 µM
Cc1ccccc1CC1COC(=O)N(c2c(Cl)cccc2Cl)C1 (configuration not stated) | ≤ 10 µM
COc1ccccc1CC1CN(c2c(Cl)cccc2Cl)C(=O)CO1 (configuration not stated) | ≤ 10 µM
Nc1ccc(Cl)c(N2CC(Cc3ccc(F)cc3F)SCC2=O)c1Cl (configuration not stated) | ≤ 10 µM
O=C1CCC(Cc2cc(F)cc(F)c2)CN1c1c(Cl)ccnc1Cl (configuration not stated) | ≤ 10 µM
CN1CCN(C(=O)CNc2cc(Cl)c(N3CC(Cc4ccc(F)cc4F)CCC3=O)c(Cl)c2)CC1 (configuration not stated) | ≤ 10 µM

Structure (SMILES) | IC50
COc1ccc(SC2CCC(=O)N(c3c(Cl)cncc3Cl)C2)cc1 (configuration not stated) | ≤ 10 µM
O=C1CCC(Oc2ccc(Cl)cc2Cl)CN1C1C(Cl)CCCC1Cl (configuration not stated) | ≤ 10 µM
O=C1CSC(Cc2ccc(Cl)cc2)CN1c1c(Cl)cccc1Cl (configuration not stated) | ≤ 10 µM
N#C/C=C/c1cc(Cl)c(N2CC(Cc3ccc(F)cc3F)CCC2=O)c(Cl)c1 (configuration not stated) | ≤ 10 µM
CC(=O)NC1CC(Cl)C(N2CC(Sc3ccc(F)cc3F)CCC2=O)C(Cl)C1 (configuration not stated) | ≤ 10 µM
O=C1CCC(Oc2ccc(F)cc2F)CN1c1c(Cl)cc(O)cc1Cl (configuration not stated) | ≤ 10 µM
O=C1CCC(Sc2cccc3ccccc23)CN1c1c(Cl)csc1Cl (configuration not stated) | ≤ 10 µM
O=C(Cc1ccccc1)Nc1ccc(Cl)c(N2CC(Cc3ccc(F)cc3F)CCC2=O)c1Cl (configuration not stated) | ≤ 10 µM
O=C1CCC(Oc2ccc(Cl)cc2)CN1c1c(Cl)cccc1Cl (configuration not stated) | ≤ 10 µM
Cc1ccccc1CC1CCC(=O)N(C2C(Cl)CCCC2Cl)C1 (configuration not stated) | ≤ 10 µM
O=C1CCC(Sc2ccc(F)cc2F)CN1c1c(Cl)cc(O)nc1Cl (configuration not stated) | ≤ 10 µM
Cc1ccc(SC2CCC(=O)N(c3c(Cl)cncc3Cl)C2)c(C)c1 (configuration not stated) | ≤ 10 µM
O=C1OCC(Cc2cc(F)cc(F)c2)CN1c1c(Cl)cccc1Cl (configuration not stated) | ≤ 10 µM
Cc1cc(C(=O)NCCCC(=O)O)cc(C)c1N1CC(Cc2ccc(F)cc2F)CCC1=O (configuration not stated) | ≤ 10 µM
O=C1CCC(Sc2ccccc2Cl)CN1c1c(Cl)cccc1Cl (configuration not stated) | ≤ 10 µM
O=C1CCC(Sc2ccccc2F)CN1C1C(Cl)CCCC1Cl (configuration not stated) | ≤ 10 µM
COc1ccc(CC2CSC(=O)N(c3c(Cl)cccc3Cl)C2)cc1 (configuration not stated) | ≤ 10 µM
Nc1cc(Cl)c(N2CC(Sc3ccc(F)cc3F)CCC2=O)c(Cl)n1 (configuration not stated) | ≤ 10 µM
O=C1CCC(Oc2ccccc2)CN1c1c(Cl)ccnc1Cl (configuration not stated) | ≤ 10 µM
COCOCc1ccccc1CC1CCC(=O)N(c2c(Cl)cccc2Cl)C1 (configuration not stated) | ≤ 10 µM
CC(C)(C)OC(=O)Nc1ccc(N2CC(Cc3ccc(F)cc3F)CCC2=O)c(Cl)c1 (configuration not stated) | ≤ 10 µM

Structure (SMILES) | IC50
COc1ccccc1OC1CCC(=O)N(c2c(Cl)csc2Cl)C1 (configuration not stated) | ≤ 10 µM
O=C1CCC(Sc2ccccc2F)CN1c1c(Cl)csc1Cl (configuration not stated) | ≤ 10 µM
Cc1cc(C)cc(CC2CCC(=O)N(c3c(Cl)cccc3Cl)C2)c1 (configuration not stated) | ≤ 10 µM
COc1ccc(CC2COC(=O)N(c3c(Cl)cccc3Cl)C2)cc1 (configuration not stated) | ≤ 10 µM
CN1CC(Cc2cc(F)cc(F)c2)CN(c2c(Cl)cccc2Cl)C1=O (configuration not stated) | ≤ 10 µM
CCN(CC)CCNc1cc(Cl)c(N2CC(Cc3ccc(F)cc3F)CCC2=O)c(Cl)c1 (configuration not stated) | ≤ 10 µM
O=C1CCC(Oc2ccc(F)cc2F)CN1c1c(Cl)cc(CO)cc1Cl (configuration not stated) | ≤ 10 µM
Nc1cnc(Cl)c(N2CC(Cc3ccc(F)cc3F)CCC2=O)c1Cl (configuration not stated) | ≤ 10 µM
O=C1CCC(Oc2ccc(Cl)cc2Cl)CN1c1c(Cl)csc1Cl (configuration not stated) | ≤ 10 µM
O=C1CCC(Cc2ccc(Cl)cc2Cl)CN1c1c(Cl)cncc1Cl (configuration not stated) | ≤ 10 µM
O=C1CCC(Cc2ccc3ccccc3c2)CN1c1c(Cl)cccc1Cl (configuration not stated) | ≤ 10 µM
O=C1CCC(Sc2ccccc2Cl)CN1c1c(Cl)csc1Cl (configuration not stated) | ≤ 10 µM
O=C(N[C@H]1C[C@H](Cc2ccc(F)cc2F)CN(c2c(Cl)cccc2Cl)C1=O)OCc1ccccc1 | ≤ 10 µM
Cc1cc(CCCCN(C)C)cc(C)c1N1CC(Cc2ccc(F)cc2F)CCC1=O (configuration not stated) | ≤ 10 µM
Cc1ccccc1SC1CCC(=O)N(C2C(Cl)CCCC2Cl)C1 (configuration not stated) | ≤ 10 µM
O=C1CCC(Nc2ccc(F)cc2F)CN1c1c(Cl)cccc1Cl (configuration not stated) | ≤ 10 µM
O=C1CCC(Oc2ccc(F)cc2F)CN1C1C(Cl)CC(CO)CC1Cl (configuration not stated) | ≤ 10 µM
Cc1ccc(SC2CCC(=O)N(c3c(Cl)cncc3Cl)C2)cc1 (configuration not stated) | ≤ 10 µM
COCC1CC(Cc2ccc(F)cc2F)CN(c2c(Cl)cccc2Cl)C1=O (configuration not stated) | ≤ 10 µM
